Data reported in the SangsterLogP compilation.

| Structure (SMILES) | logP |
| --- | --- |
| C/C=C(\C)C(=O)OC1c2c(ccc3ccc(=O)oc23)OC(C)(C)[C@@H]1OC(=O)/C(C)=C/C (stereo not given in full) | 4.41 |
| O=c1cc(O)c2ccccc2o1 | 1.42 |
| C/C=C(/C)C(=O)O[C@@H]1[C@H](OC(C)=O)c2c(ccc3ccc(=O)oc23)OC1(C)C | 3.75 |
| COc1ccc2c(C)cc(=O)oc2c1 | 3.16 |
| COc1ccc2ccc(=O)oc2c1CC1OC1(C)C (stereo not given) | 3.03 |
| CC(C)=CCOc1ccc2ccc(=O)oc2c1 | 3.91 |
| C/C=C(/C)C(=O)O[C@H]1[C@@H](O)c2c(ccc3ccc(=O)oc23)OC1(C)C | 3.56 |
| COc1cc2ccc(=O)oc2cc1OC | 2.45 |
| COc1c2ccoc2c(OCC=C(C)C)c2oc(=O)ccc12 | 3.86 |
| C/C=C(/C)C(=O)O[C@H]1C[C@@](C)(O)C(=O)[C@@H](OC(=O)/C(C)=C\C)[C@@]2(C)CC[C@@](O)(C(C)C)[C@@H]12 | 3.29 |
